{
  "source": "patent US20190351012A1",
  "about": "“TARGETING OF INTERFERON-STIMULATED GENE EXPRESSION TO TREAT INTERFERONOPATHIES” (New York University, priority 2018, published 2019)",
  "test_system": "p21^Cip1/wAF1 expression in HeLa cells",
  "experiment": "p21 Cip1/WAF1 expression in HeLa cells, real-time RT-PCR (control for HDAC inhibition)",
  "type": "cell-based, human",
  "details": "IFN-α 6 h, FIG. 1B",
  "procedure": "FIG. 1. Class I HDAC mediates ISG expression. (A, B) HeLa cells were treated with IFN-α for 6 h in the absence or presence of increasing concentrations of Romidepsin or TSA, as indicated. RNA was quantified by real-time RT-PCR for ISG54 and p21^wAF1/Cip1 expression, normalized to GAPDH, and represented as fold induction over untreated cells. (C) HeLa cells were treated with IFN-α for 6 h in the absence or presence of increasing concentrations of romidepsin, RGFP966, or RGFP233, as indicated. RNA was quantified by real-time RT-PCR for IRF9 expression, normalized to GAPDH and represented as fold induction over untreated cells. HEK293 cells were transfected with siRNA against HDAC1, HDAC2, or E2F4 separately (D) or with a combination of HDAC1 and HDAC2 targeting oligonucleotides (E) and cells were stimulated with IFN-α for 6 h (α) in the presence (αT) or absence of TSA, as indicated. Whole cell extracts were analyzed for expression of the indicated proteins by western blotting (left panels). ISG54 expression was quantified by real-time RT-PCR, and represented as fold induction over untreated cells (right panels). (F) HEK293T cells were transfected with pcDNA3 (Ctl), HDAC1, or HDAC2 expression constructs, and ISG54 expression was quantified after stimulation with IFN-α for 10 h. […] Nuclear extracts were analyzed for expression of Sin3B by western blotting (middle panels). […]",
  "data": [
    {"smiles": "CC(/C=C/C(=O)NO)=C\\[C@@H](C)C(=O)c1ccc(N(C)C)cc1", "note": "[TSA, Trichostatin A]", "values": [
      {"measurement": "p21 Cip1/WAF1 expression", "result": "led to p21^Cip1/wAF1 expression"}
    ]}
  ]
}
